In the kinase profiling compilation of Christmann-Franck et al. (2016):

Key:
Experiment in all cases: KINOMEscan competition binding
Conditions in all cases: compound 10.0 µM
[1] = system: FLT3 (human), P36888 [R834Q]
[2] = system: EGFR (human), P00533 [T790M]
[3] = system: EGFR (human), P00533 [747-751 del / S ins]
[4] = system: EGFR (human), P00533 [752-759 del]
[5] = system: KIT (human), P10721 [V559D/V654A]
[6] = system: RET (human), P07949 [M918T]
[7] = system: ABL1 (human), P00519 [Y253F]
[8] = system: ALK (human), Q9UM73 [L1196M]
[9] = system: KIT (human), P10721 [L576P]
[10] = system: EGFR (human), P00533 [T790M/L858R]
[11] = system: ALK (human), Q9UM73 [C1156Y]
[12] = system: FLT3 (human), P36888 [D835H]
[13] = system: MET (human), P08581 [Y1235D]
[14] = system: RET (human), P07949 [V804M]
[15] = system: ABL1 (human), P00519 [H396P]

Chain of KIT (human), P10721 [L576P] (P10721 whole entry L576P, looked up): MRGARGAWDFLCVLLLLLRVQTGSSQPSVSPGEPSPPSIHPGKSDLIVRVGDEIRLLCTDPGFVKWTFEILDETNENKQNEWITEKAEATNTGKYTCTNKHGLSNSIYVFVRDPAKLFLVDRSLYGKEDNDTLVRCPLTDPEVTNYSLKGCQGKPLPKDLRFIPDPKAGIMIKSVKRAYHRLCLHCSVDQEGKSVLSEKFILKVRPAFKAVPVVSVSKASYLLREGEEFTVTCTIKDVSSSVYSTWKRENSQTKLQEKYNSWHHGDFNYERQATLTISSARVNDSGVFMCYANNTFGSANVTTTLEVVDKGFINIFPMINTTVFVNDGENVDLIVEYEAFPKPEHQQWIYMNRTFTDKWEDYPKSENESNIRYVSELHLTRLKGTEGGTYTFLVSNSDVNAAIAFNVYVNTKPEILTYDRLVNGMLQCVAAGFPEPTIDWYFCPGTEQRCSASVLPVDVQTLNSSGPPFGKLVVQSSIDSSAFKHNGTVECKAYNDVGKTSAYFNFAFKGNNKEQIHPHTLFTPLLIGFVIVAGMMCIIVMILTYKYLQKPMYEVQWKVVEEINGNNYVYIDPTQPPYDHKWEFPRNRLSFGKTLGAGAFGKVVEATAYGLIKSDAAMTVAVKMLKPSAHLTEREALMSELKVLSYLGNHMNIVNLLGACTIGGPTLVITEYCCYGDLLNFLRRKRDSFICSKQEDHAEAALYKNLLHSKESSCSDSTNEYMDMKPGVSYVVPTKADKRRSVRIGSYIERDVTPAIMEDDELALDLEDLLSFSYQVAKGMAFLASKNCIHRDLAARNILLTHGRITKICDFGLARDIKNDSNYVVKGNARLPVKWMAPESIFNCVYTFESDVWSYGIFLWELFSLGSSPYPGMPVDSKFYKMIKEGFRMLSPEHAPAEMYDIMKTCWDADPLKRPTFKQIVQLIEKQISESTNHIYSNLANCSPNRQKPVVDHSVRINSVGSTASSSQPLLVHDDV
Chain of RET (human), P07949 [V804M] (P07949 whole entry V804M, looked up): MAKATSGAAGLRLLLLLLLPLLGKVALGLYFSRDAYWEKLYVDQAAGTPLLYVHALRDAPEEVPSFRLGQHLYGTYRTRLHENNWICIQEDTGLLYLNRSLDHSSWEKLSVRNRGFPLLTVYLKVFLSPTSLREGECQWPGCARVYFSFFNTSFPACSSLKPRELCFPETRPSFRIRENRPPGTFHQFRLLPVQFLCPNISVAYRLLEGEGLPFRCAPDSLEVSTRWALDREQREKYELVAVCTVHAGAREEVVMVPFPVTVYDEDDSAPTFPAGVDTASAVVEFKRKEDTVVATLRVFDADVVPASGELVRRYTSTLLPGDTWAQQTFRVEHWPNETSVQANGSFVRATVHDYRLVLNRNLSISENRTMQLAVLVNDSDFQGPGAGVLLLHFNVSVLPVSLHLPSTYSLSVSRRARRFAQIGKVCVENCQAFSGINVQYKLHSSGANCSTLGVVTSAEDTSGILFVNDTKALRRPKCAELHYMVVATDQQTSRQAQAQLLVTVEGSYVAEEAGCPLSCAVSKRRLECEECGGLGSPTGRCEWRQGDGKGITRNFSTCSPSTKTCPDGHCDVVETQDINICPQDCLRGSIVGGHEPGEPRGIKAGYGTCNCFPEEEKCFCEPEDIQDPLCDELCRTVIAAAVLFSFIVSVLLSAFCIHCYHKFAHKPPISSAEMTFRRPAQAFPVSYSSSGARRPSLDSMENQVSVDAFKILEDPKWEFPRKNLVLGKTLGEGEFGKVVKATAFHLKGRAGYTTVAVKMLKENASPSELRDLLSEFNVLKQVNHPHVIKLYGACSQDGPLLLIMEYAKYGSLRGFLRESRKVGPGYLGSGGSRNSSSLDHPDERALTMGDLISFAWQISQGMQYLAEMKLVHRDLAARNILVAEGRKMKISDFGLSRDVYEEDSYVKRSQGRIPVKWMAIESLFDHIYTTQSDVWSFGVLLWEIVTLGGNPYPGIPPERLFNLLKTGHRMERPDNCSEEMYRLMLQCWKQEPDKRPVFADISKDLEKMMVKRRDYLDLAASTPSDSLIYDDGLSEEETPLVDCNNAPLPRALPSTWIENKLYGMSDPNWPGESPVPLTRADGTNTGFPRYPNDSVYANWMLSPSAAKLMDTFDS
Chain of RET (human), P07949 [M918T] (P07949 whole entry M918T, looked up): as the sequence (P07949 whole entry V804M, looked up) above, with M804V, M918T counted along it
Chain of KIT (human), P10721 [V559D/V654A] (P10721 whole entry V559D/V654A, looked up): as the sequence (P10721 whole entry L576P, looked up) above, with V559D, P576L, V654A counted along it
Chain of ALK (human), Q9UM73 [L1196M] (Q9UM73 whole entry L1196M, looked up): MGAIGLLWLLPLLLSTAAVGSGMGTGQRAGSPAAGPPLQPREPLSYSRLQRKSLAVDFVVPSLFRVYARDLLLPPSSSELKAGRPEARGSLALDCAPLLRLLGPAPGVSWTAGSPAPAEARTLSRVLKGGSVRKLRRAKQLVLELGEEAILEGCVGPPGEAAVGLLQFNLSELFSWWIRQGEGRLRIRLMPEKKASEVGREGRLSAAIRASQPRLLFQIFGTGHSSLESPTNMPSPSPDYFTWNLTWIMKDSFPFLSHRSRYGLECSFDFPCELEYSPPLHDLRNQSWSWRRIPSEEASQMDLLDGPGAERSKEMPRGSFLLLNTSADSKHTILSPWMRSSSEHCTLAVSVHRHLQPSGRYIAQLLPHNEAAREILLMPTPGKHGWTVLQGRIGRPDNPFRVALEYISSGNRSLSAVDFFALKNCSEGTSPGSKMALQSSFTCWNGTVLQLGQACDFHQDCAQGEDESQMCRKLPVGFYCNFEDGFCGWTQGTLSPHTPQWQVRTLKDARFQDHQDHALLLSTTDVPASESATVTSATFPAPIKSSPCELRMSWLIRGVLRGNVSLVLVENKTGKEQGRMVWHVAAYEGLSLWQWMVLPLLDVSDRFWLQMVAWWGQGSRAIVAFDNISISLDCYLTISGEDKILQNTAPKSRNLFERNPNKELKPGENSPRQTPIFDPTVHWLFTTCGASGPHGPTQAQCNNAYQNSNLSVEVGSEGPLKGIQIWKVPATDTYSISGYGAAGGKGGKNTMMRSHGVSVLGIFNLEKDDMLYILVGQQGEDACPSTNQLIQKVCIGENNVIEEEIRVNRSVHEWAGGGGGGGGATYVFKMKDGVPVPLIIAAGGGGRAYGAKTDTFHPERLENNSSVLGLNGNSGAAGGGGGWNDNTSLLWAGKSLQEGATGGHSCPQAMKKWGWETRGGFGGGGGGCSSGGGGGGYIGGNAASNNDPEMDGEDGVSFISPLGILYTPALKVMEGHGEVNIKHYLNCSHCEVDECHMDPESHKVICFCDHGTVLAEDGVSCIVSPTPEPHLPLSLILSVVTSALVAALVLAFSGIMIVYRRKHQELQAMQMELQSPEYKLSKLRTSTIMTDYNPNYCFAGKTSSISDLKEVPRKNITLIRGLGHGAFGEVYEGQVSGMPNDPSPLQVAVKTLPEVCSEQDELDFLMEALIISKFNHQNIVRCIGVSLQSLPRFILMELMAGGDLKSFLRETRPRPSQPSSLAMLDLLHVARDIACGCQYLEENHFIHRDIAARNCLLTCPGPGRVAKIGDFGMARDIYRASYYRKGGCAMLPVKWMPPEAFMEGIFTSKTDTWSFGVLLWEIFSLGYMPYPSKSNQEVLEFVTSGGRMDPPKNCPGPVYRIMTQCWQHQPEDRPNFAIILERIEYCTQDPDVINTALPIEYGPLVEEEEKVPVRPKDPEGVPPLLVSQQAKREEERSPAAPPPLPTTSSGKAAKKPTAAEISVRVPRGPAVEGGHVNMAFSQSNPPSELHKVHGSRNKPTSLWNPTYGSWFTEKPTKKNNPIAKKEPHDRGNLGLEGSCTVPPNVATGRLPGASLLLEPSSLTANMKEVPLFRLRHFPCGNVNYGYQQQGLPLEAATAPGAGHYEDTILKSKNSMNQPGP
Chain of ALK (human), Q9UM73 [C1156Y] (Q9UM73 whole entry C1156Y, looked up): as the sequence (Q9UM73 whole entry L1196M, looked up) above, with C1156Y, M1196L counted along it

Compound | kinase still bound, per cent of control [1] [%] | kinase still bound, per cent of control [2] [%] | kinase still bound, per cent of control [3] [%] | kinase still bound, per cent of control [4] [%] | kinase still bound, per cent of control [5] [%] | kinase still bound, per cent of control [6] [%] | kinase still bound, per cent of control [7] [%] | kinase still bound, per cent of control [8] [%] | kinase still bound, per cent of control [9] [%] | kinase still bound, per cent of control [10] [%] | kinase still bound, per cent of control [11] [%] | kinase still bound, per cent of control [12] [%] | kinase still bound, per cent of control [13] [%] | kinase still bound, per cent of control [14] [%] | kinase still bound, per cent of control [15] [%]
O=c1[nH]c2ccccc2n1C1CCN(Cc2ccc(-c3nc4cc5[nH]cnc5cc4nc3-c3ccccc3)cc2)CC1 | 100 | 67 | 92 | 58 | 92 | 79 | 72 | 64 | 87 | 100 | 55 | 74 | 68 | 91 | 
CCOc1cc(N2CCC(O)CC2)ccc1Nc1ncc2c(n1)N(C)c1ccccc1C(=O)N2C |  |  | 100 | 100 | 100 | 100 | 100 |  | 100 | 100 |  | 100 | 100 | 100 | 100
CCC(=O)N1CCN(c2ccc(-n3c(=O)ccc4cnc5ccc(-c6cnc7ccccc7c6)cc5c43)cc2C(F)(F)F)CC1 |  | 100 | 80 | 84 |  | 51 |  |  | 48 | 100 |  | 18 | 100 | 69 | 68
OCCCNc1cc(-c2ccnc(Nc3cccc(Cl)c3)n2)ccn1 |  |  | 100 | 100 | 100 | 100 | 100 |  | 100 | 100 |  | 100 | 100 | 100 | 100
COc1cc(C(=O)NC2CCN(C)CC2)ccc1Nc1ncc2c(n1)N(C1CCCC1)CCC(=O)N2C(C)C |  |  | 100 | 100 | 100 | 0 | 100 |  | 100 | 100 |  | 100 | 100 | 100 | 100
Cc1cn(-c2cc(C(=O)Nc3ccc(C)c(NC(=O)c4ccno4)c3)cc(C(F)(F)F)c2)cn1 |  |  | 100 | 100 | 5.4 | 100 | 7.4 |  | 0 | 100 |  | 100 | 100 | 100 | 16
Cn1c(=O)n(-c2ccc(C(C)(C)C#N)cc2)c2c3cc(-c4cnc5ccccc5c4)ccc3ncc21 |  |  | 100 | 100 | 100 | 100 | 100 |  | 100 | 100 |  | 21 |  | 100 | 100
COc1cc2ncnc(Nc3cccc(Cl)c3)c2cc1OC | 58 | 1.3 | 3.2 | 2.5 | 82 | 3.4 | 2.3 | 63 | 56 | 22 | 31 | 15 | 100 | 94 | 
CCc1nc(-c2cccc(C)c2)c(-c2ccnc(NC(=O)c3ccccc3)c2)s1 |  |  |  |  |  | 72 | 26 |  | 51 |  |  |  |  | 94 | 3
COc1cc(N2CCC(C(N)=O)CC2)ccc1Nc1nc(N)c(Cl)c(Nc2ccccc2S(=O)(=O)C(C)C)n1 |  |  | 0.75 | 1.2 | 100 | 100 | 100 |  |  |  |  | 11 |  | 100 | 100
